In experiment [1] the target is human LOXL2 (Homo sapiens (Human), UniProt Q9Y4K0). Nature of the experiment: Human LOXL2 amine oxidase activity assay (Amplex Red). In kind it is biochemical. As to conditions: concentrated conditioned media from CHO cells expressing human LOXL2, 2 h preincubation at 37° C., DAP substrate. As for the experimental part:
Example B-2: Human LOXL2 Amine Oxidase Activity Assay
LOXL2 amine oxidase activity was evaluated by measuring Amplex Red fluorescence using 10-20× concentrated conditioned media from CHO cells stably expressing human LOXL2. To assay for amine oxidase activity, 10 μL of the concentrated conditioned media was incubated with 2 μL of test compound in DMSO and 73 μL Assay Buffer (50 mM Borate Buffer, pH8) for 2 h at 37° C. After the 2 h incubation, 5 μL of 10 mM 1,5-Diaminopentane (DAP) diluted in Assay Buffer and 10 μL of Amplex Red Mix (8.5 μL Assay Buffer+0.5 μL of 10 mM Amplex Red+1 μL of 500 U/ml Horseradish Peroxidase) were added and the plate mixed and immediately placed on the FlexStation for fluorescence measurements. Fluorescence was read in kinetic mode every 2 min for 0.5-1 hour at excitation=544 and emission=590. The amine oxidase activity was calculated from the slope of the linear portion of the curve. Wells containing vehicle (DMSO) represented maximum activity and were set to 0% inhibition and wells containing 100 μM βAPN (3-aminopropionitrile) represented no activity and were set to 100% inhibition.

The target of experiment [2] is ASK1 (Homo sapiens (Human), UniProt Q99683). Nature of the experiment: Human ASK1 ADP-Glo kinase assay. In kind it is biochemical. Particulars: recombinant ASK1 (amino acids 649-946), 50 μM ATP, MBP substrate. On the procedure:
Example B-1: Human ASK1 ADP-Glo Assay
The ability of test compounds to inhibit ASK1 kinase activity was determined using the luminescent ADP-Glo™ Kinase Assay and Myelin Basic Protein (MBP) as a substrate (Promega Corporation, Madison, Wis.). During the kinase reaction, ASK1 utilizes ATP and generates ADP. The remaining ATP is then depleted by addition of the ADP-Glo™ reagent which also terminates the reaction. Subsequent addition of the Kinase Detection Reagent converts the ADP that was produced during the kinase reaction to ATP, and this newly synthesized ATP is converted to light using the luciferase/luciferin reactions. The assay was performed according to the manufacturer's instructions. Briefly, purified, recombinant ASK1 (amino acids 649-946) (10-20 ng/well) was added to a 384-well, F bottom, small volume, HIbase, white plate (Greiner Bio-One, Monroe, N.C. #784075) containing 1-2 μL 5× test compound or vehicle control (diluted 1:20 from a 100% DMSO stock solution into 1× Reaction Buffer A). The enzyme was allowed to pre-incubate with test compound from 15-120 min at 30° C. before the addition of the ATP/substrate mix (final concentrations of 50 μM ATP+250 ng MBP in 1× Reaction Buffer A). The mixture was then incubated at room temperature for 40 min before the addition of ADP-Glo™ reagent and a second 40 minute room temperature incubation. Following the addition of the Kinase Detection Reagent, the plate was incubated for an additional 40 min at room temperature before reading luminescence on a FlexStation 3 (Molecular Devices, Sunnyvale, Calif.). Maximum activity was determined from wells treated with vehicle and was set to 100% and minimum activity was determined from wells containing no enzyme and this was set to 0%. Percent inhibition was calculated relative to the controls and the data graphed in Collaborative Drug Discovery (CDD) Vault (Burlingame, Calif.).
In general terms: ADP-Glo turns the ADP formed in a reaction into a luminescent signal.

Counter-ions that a name gives are not always drawn. Some results are limits rather than exact numbers.

Chain of human LOXL2 (Q9Y4K0 26-774): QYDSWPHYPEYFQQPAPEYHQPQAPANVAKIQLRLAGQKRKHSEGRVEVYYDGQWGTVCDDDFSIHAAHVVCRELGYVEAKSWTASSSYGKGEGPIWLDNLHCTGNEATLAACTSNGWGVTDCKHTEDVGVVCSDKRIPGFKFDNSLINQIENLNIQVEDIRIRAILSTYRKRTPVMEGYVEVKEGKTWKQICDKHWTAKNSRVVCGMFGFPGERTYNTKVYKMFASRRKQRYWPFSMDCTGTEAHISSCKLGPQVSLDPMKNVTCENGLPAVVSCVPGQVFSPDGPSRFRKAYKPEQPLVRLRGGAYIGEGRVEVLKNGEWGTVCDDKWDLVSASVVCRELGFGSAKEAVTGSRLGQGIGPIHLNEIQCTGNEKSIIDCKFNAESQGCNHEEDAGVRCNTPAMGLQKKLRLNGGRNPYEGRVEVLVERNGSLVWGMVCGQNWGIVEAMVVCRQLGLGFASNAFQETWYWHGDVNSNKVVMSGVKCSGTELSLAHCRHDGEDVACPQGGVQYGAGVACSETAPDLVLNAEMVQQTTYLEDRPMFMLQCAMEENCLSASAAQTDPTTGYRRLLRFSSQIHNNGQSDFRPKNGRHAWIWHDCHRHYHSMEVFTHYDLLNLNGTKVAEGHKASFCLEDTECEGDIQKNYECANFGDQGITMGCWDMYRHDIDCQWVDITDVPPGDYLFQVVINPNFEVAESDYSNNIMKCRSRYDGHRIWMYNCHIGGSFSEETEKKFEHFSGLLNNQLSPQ
Chain of ASK1 (Q99683 649-946): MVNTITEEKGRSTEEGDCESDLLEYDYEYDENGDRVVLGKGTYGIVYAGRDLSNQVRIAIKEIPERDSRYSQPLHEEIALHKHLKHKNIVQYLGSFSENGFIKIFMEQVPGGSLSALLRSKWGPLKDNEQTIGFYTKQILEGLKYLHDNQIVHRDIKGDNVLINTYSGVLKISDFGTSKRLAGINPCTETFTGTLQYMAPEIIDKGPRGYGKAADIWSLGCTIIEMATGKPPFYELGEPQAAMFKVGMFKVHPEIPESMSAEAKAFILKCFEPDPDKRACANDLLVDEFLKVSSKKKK

In general, IC50 refers to the concentration needed to halve the response being measured. For the compound `CC(C)n1cnnc1-c1cccc(NC(=O)c2cc(NC(=O)c3ccc(CN)cc3)ccc2F)n1` [Compound 1-306, 5-(4-(Aminomethyl)benzamido)-2-fluoro-N-(6-(4-isopropyl-4H-1,2,4-triazol-3-yl)pyridin-2-yl)benzamide hydrochloride], the results for the IC50 in experiment [1] and in experiment [2] were more than 1000 nM and less than 300 nM, respectively.
Take `NCc1cc(Oc2ccnc(C(=O)Nc3cccc(-c4nncn4C4CC4)n3)c2)nc(C(F)(F)F)c1` [Compound 1-330, 4-((4-(Aminomethyl)-6-(trifluoromethyl)pyridin-2-yl)oxy)-N-(6-(4-cyclopropyl-4H-1,2,4-triazol-3-yl)pyridin-2-yl)picolinamide hydrochloride]: the IC50 in experiment [1] and in experiment [2] was less than 300 nM in each case.
As to `CC(C)n1cnnc1-c1cccc(NC(=O)c2cccc(Oc3cc(CN)cc(C(F)(F)F)n3)c2)n1` [Compound 1-331, 3-((4-(Aminomethyl)-6-(trifluoromethyl)pyridin-2-yl)oxy)-N-(6-(4-isopropyl-4H-1,2,4-triazol-3-yl)pyridin-2-yl)benzamide hydrochloride], the IC50 in experiment [1] and in experiment [2] was less than 300 nM each time.
For `C[C@H](CO)n1cnnc1-c1cccc(NC(=O)c2cc(NCc3ccc(F)cc3)ccc2F)n1` [Compound 1-343, (R)-2-Fluoro-5-((4-fluorobenzyl)amino)-N-(6-(4-(1-hydroxypropan-2-yl)-4H-1,2,4-triazol-3-yl)pyridin-2-yl)benzamide hydrochloride], the IC50 in experiment [2] is less than 300 nM.

The values above are taken from patent US11345676B2, “Apoptosis signal-regulating kinase 1 (ASK 1) inhibitor compounds” (PHARMAKEA, INC., priority 2017, dated 2022).
